Experimental data from article PMC12715788, “Unraveling the Potential of Small Molecule Heparin Glycomimetics in Neuroregenerative Therapeutics” (Journal of the American Chemical Society, 2025).
Where “and” joins values, the source holds several entries; their conditions need not be identical. Equal values may be shown once. Entries after “also recorded” stand apart in the source; their conditions may differ.

Key:
FGF-2 [1] = molecular target: T1, FGF-2 (Homo sapiens, UniProt P09038); assay: BLI competition assay with immobilized native HS for FGF-2 binding; settings: for competition with immobilized native HS for FGF-2 binding, signal intensity: FGF-2 50 nM premixed with varying concentrations; for IC50: FGF-2 50 nM, fixed association time t = 240 s, read-out: Apparent IC50(t), competition with immobilized native HS for FGF-2 binding
Source text: We next examined the functional relevance of the synthetic HS glycomimetics by testing their ability to compete with native HS for FGF-2 binding using competition assays. Although direct binding assays measure the intrinsic affinity of HS glycomimetics for FGF-2, they are limited in representing the complex, multimolecular environment of biological systems. In vivo, FGF-2 activity is tightly regulated by its interactions with GAGs, which are abundant on cell surfaces and in the ECM. These interactions stabilize FGF-2 and facilitate its dimerization with FGF receptors (FGFRs), a requirement for effective signal transduction. , Thus, therapeutic candidates targeting FGF-2 must be evaluated not only for direct binding but also for their ability to modulate or disrupt GAG-mediated interactions. Therefore, we performed competition assays in which native HS was immobilized on the sensor surface. Solutions containing a fixed concentration of FGF-2 (50 nM) were premixed with varying concentrations of HS glycomimetics, functioning as inhibitors in this context, (M1, D1, D2, D3, and T1) and also with the heparin hexasaccharide (H1) (GlcNS6S-GlcA-GlcNS3S6S-IdoA2S-GlcNS6S-GlcA), a well-studied HS glycomimetic in the literature, as a positive control (Figure B). […] The progressive decrease in signal intensity with increasing inhibitor concentration directly reflects competition with immobilized HS for FGF-2 binding.

FGF-1 = FGF-1 (Homo sapiens, UniProt P05230); assay: Far-UV CD spectroscopy and CD thermal denaturation; settings: CD thermal denaturation 10–90 °C; protein with sugar, 1:3 molar ratio
Source text: (§1) To select a lead compound, we complemented the affinity data with a series of studies evaluating the structural and functional implications of protein-HS glycomimetic interactions. We assessed the therapeutic safety profile of our HS glycomimetics. We also employed circular dichroism (CD) spectroscopy to assess secondary structural changes in protein conformation upon binding to native HS and HS glycomimetics. Since native HS alone produces only a minimal signal, it was ensured that its contribution would not interfere with protein-sugar complex spectra. Therefore, only the far-UV CD spectra of bare proteins and their sugar complexes were recorded. […] Upon incubation with sugars (1:3 molar ratio), significant spectral changes were observed, indicating sugar-induced alterations in secondary structure (Figure A).
(§2) We also evaluated the thermal stability of the proteins and their sugar complexes by CD-based thermal denaturation experiments. The spectra were recorded across a temperature range of 10–90 °C (Figure B). For all proteins except AT-III, the unfolding profiles were analyzed to determine the melting temperature (T m), representing the midpoint of the transition from the folded to the unfolded state, an indicator of structural integrity and resistance to thermal denaturation. The calculated values are compiled in Table .

FGF-2 [2] = molecular target: T1, FGF-2; assay: Far-UV CD spectroscopy and CD thermal denaturation; settings: CD thermal denaturation 10–90 °C; protein with sugar, 1:3 molar ratio
Source text: as §1, §2

[3] = system: citrated pooled rat plasma; assay: Activated partial thromboplastin time (aPTT) assay; settings: citrated pooled rat plasma; highest concentration tested; control 22 s
Source text: To complement these findings, we performed an activated partial thromboplastin time (aPTT) assay in citrated pooled rat plasma to assess the overall impact of the compounds on the intrinsic coagulation pathway. This global clotting assay measures the time required for fibrin formation and is sensitive to anticoagulant effects. Figure F,G compare the effects of UFH, heparan sulfate, Fondaparinux, and the synthetic glycomimetics when supplemented into citrated plasma. […] As expected, UFH produced a strong, concentration-dependent anticoagulant response, prolonging the mean clotting time to 271 s at the highest concentration tested, while heparan sulfate and Fondaparinux induced weaker but measurable effects (83 and 37 s, respectively). […] The results further confirm that selective sulfation patterns can decouple GF recognition from anticoagulant function, an essential prerequisite for their translational application in regenerative medicine. […] These interactions are in line with nonspecific electrostatic binding, a feature of highly sulfated oligosaccharides known to engage different proteins via charge-based, rather than specific, biologically targeted interactions. Thus, to avoid potential off-target effects associated with highly sulfated analogues, we selected the disaccharide D2 for subsequent biological experiments.

Factor Xa = assay: AT-III-mediated chromogenic substrate assay; type: biochemical; settings: absorbance at 405 nm
Source text: (§3) Active coagulation factors cleave chromogenic peptide substrates, therefore producing p-nitroaniline, a yellow-colored product with a detectable absorbance signal at λ = 405 nm. Inhibitors like heparin-AT-III complexes decrease enzyme activity and so lower absorbance readings.

AT-III = AT-III (Homo sapiens, UniProt P01008); assay: BLI binding assay, sugars immobilized, protein as analyte
Method: We evaluated the binding affinity of native HS and synthetic HS glycomimetics (M1, D1, D2, D3, and T1) to these proteins using biolayer interferometry (BLI). The terminal amino groups of the sugars were immobilized onto the sensor surface using standard amine coupling chemistry, and binding assays were performed by introducing the proteins as analytes at varying concentrations (Figure A). The equilibrium dissociation constants (K D) were determined using the steady-state affinity curve fitting.

Factor IIa (thrombin) = assay: AT-III-mediated chromogenic substrate assay; type: biochemical; settings: absorbance at 405 nm
Source text: as §3

[4] = system: rat dissociated hippocampal neurons; assay: Neurite morphometry in dissociated hippocampal neurons; type: cell-based; settings: 24 h treatment, 1 day in vitro, D2 1 μM, FGF-2 40 ng/mL, mean ± SEM
Method: In the pursuit of this, we used rat dissociated hippocampal neurons as an in vitro model system. We assessed the impact of HS glycomimetics on neuronal morphology, using immunofluorescence imaging and quantitative morphometric analysis, and on synaptic functionality through electrophysiological monitoring of spontaneous neuronal activity.
During the first day of differentiation in vitro (Table S7.1 in SI), neurons were treated for 24 h with either control medium, glycomimetic D2 (1 μM), FGF-2 (40 ng/mL) alone, or a combination of FGF-2 and D2 (40 ng/mL and 1 μM, respectively). After treatments, cultures were fixed and immuno-labeled with antibodies against the neuronal marker β-Tubulin III to study cell morphology. […] Quantitative analysis further corroborated these observations (Figure B–C).

hippocampal neurons = assay: Patch clamp recording of spontaneous synaptic activity in hippocampal neurons; type: cell-based, rat; settings: 24 h treatment, neurons at 8 days in vitro, voltage clamp −58 mV; mean ± SEM
Source text: In another set of experiments, we investigated the impact of D2+FGF-2, with respect to that of FGF-2 alone, on the formation of functionally active neuronal networks. To this aim, we used hippocampal neurons developed in vitro for 1 week, from which, through the single-cell patch clamp technique, we recorded in voltage clamp mode spontaneous synaptic activity. […] While neurons treated with FGF-2 alone presented sPSCs of fluctuating amplitude (in average 42 ± 5 pA) at a frequency of 1.23 ± 0.38 Hz, the coapplication of D2 with the growth factor induced a statistically significant enhancement of both these values (for D2+FGF-2, sPSCs frequency: 2.52 ± 0.47 Hz, and sPSCs amplitude: 75 ± 14 pA, p < 0.05 FGF-2 vs D2+FGF-2, Figure E–F).

T1 sequence (P09038 134-288 limits assumed, species assumed): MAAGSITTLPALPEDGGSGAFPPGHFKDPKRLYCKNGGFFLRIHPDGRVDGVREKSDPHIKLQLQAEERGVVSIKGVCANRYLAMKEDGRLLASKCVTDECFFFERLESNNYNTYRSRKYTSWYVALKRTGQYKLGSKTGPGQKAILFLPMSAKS
Sequence of FGF-1 (P05230 whole entry, species assumed): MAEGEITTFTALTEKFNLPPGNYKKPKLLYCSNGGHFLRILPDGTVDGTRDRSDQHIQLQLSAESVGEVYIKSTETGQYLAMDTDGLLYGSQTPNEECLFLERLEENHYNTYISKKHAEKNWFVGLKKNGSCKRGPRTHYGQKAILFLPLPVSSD
Sequence of AT-III (P01008 33-464): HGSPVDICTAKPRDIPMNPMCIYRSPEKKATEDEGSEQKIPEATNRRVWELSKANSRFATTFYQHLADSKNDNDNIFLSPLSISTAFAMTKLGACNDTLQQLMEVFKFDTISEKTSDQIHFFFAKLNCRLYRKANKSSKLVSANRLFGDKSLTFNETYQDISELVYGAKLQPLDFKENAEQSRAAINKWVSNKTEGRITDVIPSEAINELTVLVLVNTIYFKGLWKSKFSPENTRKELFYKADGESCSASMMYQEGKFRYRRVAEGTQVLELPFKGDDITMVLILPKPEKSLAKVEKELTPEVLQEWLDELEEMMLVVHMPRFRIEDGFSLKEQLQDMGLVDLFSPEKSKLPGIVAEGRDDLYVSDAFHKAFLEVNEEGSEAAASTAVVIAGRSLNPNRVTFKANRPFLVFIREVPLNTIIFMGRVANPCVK

FGF-1 Sample Tm (FGF-1) | FGF-2 Sample Tm (FGF-2 [2]) | aPTT mean clotting time [3] | IC50 (FGF-2 [1]) | Compound | competition with immobilized native HS for FGF-2 binding, signal intensity (FGF-2 [1]) | other results
44.5 °C and 44.5 ± 0.4 °C | 51.6 °C and 51.6 ± 1.9 °C | 22.5 s |  | CC(=O)N[C@H]1[C@@H](OCCN)O[C@H](CO)[C@@H](O[C@@H]2O[C@@H](C(=O)O)[C@@H](OS(=O)(=O)O)[C@H](O)[C@H]2OS(=O)(=O)O)[C@@H]1O [D1, IdoA2S4S-GlcNAc] | much weaker effect; also recorded: minimal inhibition | 
45.3 °C and 45.3 ± 0.3 °C | 54.2 °C and 54.2 ± 1.2 °C | 25.3 s | 84.5 µM | NCCCCCOC1OC(COS(=O)(=O)O)C(OC2OC(C(=O)NNS(=O)(=O)O)C(OS(=O)(=O)O)C(O)C2OS(=O)(=O)O)C(O)C1NS(=O)(=O)O (stereo not shown) [D3, GlcANS6S-GlcNS6S] | dose-dependent reduction in signal intensity | 
 |  | 37 s |  | CO[C@H]1O[C@H](COS(=O)(=O)O)[C@@H](O[C@@H]2O[C@@H](C(=O)O)[C@@H](O[C@H]3O[C@H](COS(=O)(=O)O)[C@@H](O[C@@H]4O[C@H](C(=O)O)[C@@H](O[C@H]5O[C@H](COS(=O)(=O)O)[C@@H](O)[C@H](O)[C@H]5NS(=O)(=O)O)[C@H](O)[C@H]4O)[C@H](OS(=O)(=O)O)[C@H]3NS(=O)(=O)O)[C@H](O)[C@H]2OS(=O)(=O)O)[C@H](O)[C@H]1NS(=O)(=O)O [Fondaparinux, reference compound] |  | AT-III-mediated Factor Xa activity (Factor Xa): selectively inhibited
43.3 °C and 43.3 ± 0.4 °C | 50.7 °C and 50.7 ± 0.2 °C | 22 s |  | CC(=O)N[C@H]1[C@@H](OCCN)O[C@H](COS(=O)(=O)O)[C@@H](O)[C@@H]1O [M1, GlcNAc6S] | much weaker effect; also recorded: minimal inhibition | 
46.3 °C and 46.3 ± 0.5 °C | 59.3 °C and 59.3 ± 2.2 °C | 28.5 s | 0.9 µM and 0.91 µM | NC[C@H]1O[C@H](O[C@H]2[C@H](OS(=O)(=O)O)[C@@H](OS(=O)(=O)O)[C@@H](O[C@H]3[C@H](OS(=O)(=O)O)[C@@H](OS(=O)(=O)O)[C@@H](O[C@H]4[C@H](OS(=O)(=O)O)[C@@H](OS(=O)(=O)O)[C@@H]5OC[C@H]4O5)O[C@@H]3COS(=O)(=O)O)O[C@@H]2COS(=O)(=O)O)[C@H](OS(=O)(=O)O)[C@@H](OS(=O)(=O)O)[C@@H]1OS(=O)(=O)O [T1, Glc2S3S-Glc2S3S6S-Glc2S3S6S-Glc2S3S] | dose-dependent reduction in signal intensity | binding to AT-III (AT-III): bound to AT-III; AT-III-mediated Factor IIa activity (Factor IIa (thrombin)): slight interactions; AT-III-mediated Factor Xa activity (Factor Xa): slight interactions
 |  |  |  | FGF-2: fibroblast growth factor-2, basic FGF, applied alone at 40 ng/mL |  | number of neurites emerging from the cell body ([4]; control 3.6 ± 0.22): 5.4 ± 0.28 neurites per neuron; length of the longest neurite ([4]; control 38 ± 2): 45 ± 4 μm; sPSCs amplitude (hippocampal neurons): 42 ± 5 pA; sPSCs frequency (hippocampal neurons): 1.23 ± 0.38 Hz
 |  |  | 2.61 µM | GlcNS6S-GlcA-GlcNS3S6S-IdoA2S-GlcNS6S-GlcA [H1, reference compound] |  | 
